Data reported in patent publication US4374843A, “2-Guanidino-4-heteroarylthiazoles” (Pfizer Inc., priority 1981, dated 1983).
Structures can show the parent of a compound that is named as a salt.

Experiments:
Heidenhain pouch dogs = assay: Gastric acid antisecretory activity in pentagastrin-stimulated Heidenhain pouch dogs; format: in vivo, dog; conditions: Canis lupus familiaris, iv, 1.5 h; 1 mg/kg intravenously, 90 min after start of pentagastrin infusion; lowest acid output after drug vs mean acid output immediately before drug; conscious fasted dogs; read-out: inhibited gastric acid secretion
Experimental: The gastric acid antisecretory activity of compounds of the present invention was determined in overnight fasted, conscious Heidenhain pouch dogs. Pentagastrin (Pentavlon-Ayerst was used to stimulate acid output by continuous infusion into a superficial leg vein at doses earlier determined to stimulate near maximal acid output from the gastric pouch. Gastric juice was collected at 30 minute intervals following the start of a pentagastrin infusion and measured to the nearest 0.1 ml. Ten collections were taken for each dog during an experiment. Acid concentration was determined by titrating 1.0 ml of gastric juice to pH 7.4 with 0.1 N sodium hydroxide using an Autoburette and a glass electrode pH meter (Radiometer).
Drug or vehicle was given intraveneously 90 minutes following the start of the pentagastrin infusion, at a dose of 1 mg/kg. Gastric acid antisecretory effects were calculated by comparing the lowest acid output after drug administration with the mean acid output immediately before drug.

H2 -receptor = biological target: T1, H2 -receptor (Cavia porcellus, UniProt P47747); assay: Histamine-H2 antagonist activity in isolated guinea pig right atria; format: cell-based; conditions: histamine dose-response curve in presence and absence of antagonist, 32°; for Kb: Krebs-Henseleit buffer pH 7.4, read-out: pA2 (apparent dissociation constant of the H2-receptor antagonist) (converted)
T1 construct: the heart removed and the right atria dissected free; from tissue; host or cells: isolated guinea pig right atria
T1 sequence (P47747 whole entry): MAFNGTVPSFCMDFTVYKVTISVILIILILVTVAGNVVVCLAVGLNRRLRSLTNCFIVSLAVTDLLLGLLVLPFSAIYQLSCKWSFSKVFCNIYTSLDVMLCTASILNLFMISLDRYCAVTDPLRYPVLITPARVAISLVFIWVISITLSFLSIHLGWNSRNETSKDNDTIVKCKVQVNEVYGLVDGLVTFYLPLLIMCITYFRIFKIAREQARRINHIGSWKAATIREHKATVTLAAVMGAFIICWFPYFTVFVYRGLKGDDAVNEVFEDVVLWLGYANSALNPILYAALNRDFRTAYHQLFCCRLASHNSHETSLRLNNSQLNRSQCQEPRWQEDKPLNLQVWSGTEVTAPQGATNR
Experimental: The histamine-H2 antagonist activity of compounds of the present invention was determined by the following procedure:
Guinea pigs are killed rapidly with a blow to the head, the heart removed and the right atria dissected free. Atria are suspended, isometrically, in a temperature-controlled (32°±2°) tissue bath (10 ml containing oxygenated (95% O2; 5% CO2) Krebs-Henseleit buffer (pH 7.4) and are allowed to stabilize approximately one hour during which time the tissue bath is flushed several times. Individual atrial contractions are followed with a force-displacement transducer connected to a cardiotachometer and Grass polygraph recorder. After obtaining a dose-response curve to histamine, the bath containing each atrium is flushed several times with fresh buffer and the atria re-equilibrated to basal rates. Following the return to basal rate, test compounds are added at selected final concentrations and the histamine dose-response curve is again determined in the presence of antagonist. Results are expressed as dose-ratios, the ratio of histamine concentrations required to produce one-half of maximal stimulation in the presence and absence of antagonist, and the apparent dissociation constant of the H2 -receptor antagonist pA2, is determined.

SMILES | Kb (H2 -receptor) [nM] | pA2 (apparent dissociation constant of the H2-receptor antagonist) (H2 -receptor; Krebs-Henseleit buffer pH 7.4) | inhibition at 1 mg/kg (Heidenhain pouch dogs) [%]
CNc1nc(-c2csc(NC(=N)N)n2)cs1 [Example 6, 2-Guanidino-4-(2-N-methylamino-4-thiazoyl)thiazole] | < 2000 | – | ≥ 15
CCCNc1nc(-c2csc(NC(=N)N)n2)c[nH]1 [Example 23, 2-(Guanidino-4-(2-N-n-propylamino-4-imidazoyl)thiazoledihydrochloride] | < 2000 | – | ≥ 15
N=C(N)Nc1nc(-c2c[nH]cn2)cs1 [Example 31, 2-Guanidino-4-(4-imidazoyl)thiazole hydrobromide] | – | – | ≥ 15
Cc1ncc(-c2csc(N=C(N)N)n2)[nH]1 [Example 37, 2-Guanidino-4-(2-methyl-4-imidazolyl)thiazole] | < 2000 | – | ≥ 15
N=C(N)Nc1nc(-c2c[nH]c(NCCc3ccccc3)n2)cs1 [Example 27, 2-Guanidino-4-(2-N-phenethylamino-4-imidazoyl)thiazole dihydrochloride] | < 2000 | – | ≥ 15
N=C(N)Nc1nc(-c2nc(N)n[nH]2)cs1 [Example 11, 2-Guanidino-4-(3-amino-5-1,2,4-triazolyl)thiazole] | – | – | ≥ 15
N=C(N)Nc1nc(-c2csc(N)n2)cs1 [Example 4, 2-Guanidino-4-(2-amino-4-thiazolyl)thiazole dihydrobromide] | < 2000 | – | ≥ 15
N=C(N)Nc1nc(-c2c[nH]c(NCc3ccccc3)n2)cs1 [Example 26, 2-Guanidino-4-(2-N-benzylamino-4-imidazoyl)thiazole dihydrochloride] | < 2000 | – | ≥ 15
N=C(N)Nc1nc(-c2c[nH]c(Nc3ccccc3)n2)cs1 [Example 46, 2-Guanidino-4-(2-N-phenylamino-4-imidazolyl)thiazole] | < 2000 | – | –
CCCc1n[nH]c(-c2csc(NC(=N)N)n2)n1 [Example 15, 2-Guanidino-4-(3-propyl-5-1,2,4-triazolyl)thiazole hemihydrate] | < 2000 | – | ≥ 15
N=C(N)Nc1nc(-c2c[nH]c(N)n2)cs1 [Example 20, 2-Guanidino-4-(2-amino-4-imidazolyl)thiazole] | – | – | ≥ 15
CCCCNc1nc(-c2csc(NC(=N)N)n2)c[nH]1 [Example 25, 2-Guanidino-4-(2-N-n-butylamino-4-imidazoyl)thiazole dihydrochloride] | < 2000 | – | ≥ 15
CC(=O)Nc1nc(-c2csc(NC(=N)N)n2)cs1 [Example 7, 2-Guanidino-4-(2-N-acetylamino-4-thiazoyl)thiazole] | < 2000 | – | ≥ 15
Cc1n[nH]c(-c2csc(NC(=N)N)n2)n1 [Example 13, 2-Guanidino-4-(3-methyl-5-1,2,4-triazolyl)thiazole hemihydrate] | – | – | ≥ 15

The next lines start with results.

Kb (H2 -receptor) [nM] | pA2 (apparent dissociation constant of the H2-receptor antagonist) (H2 -receptor; Krebs-Henseleit buffer pH 7.4) | SMILES | inhibition at 1 mg/kg (Heidenhain pouch dogs) [%]
< 2000 | – | Cc1nc[nH]c1-c1csc(NC(=N)N)n1 [Example 41, 2-Guanidino-4-(4-methyl-5-imidazolyl)thiazole hydrobromide] | ≥ 15
– | greater than 5.7 | Cc1nc(C)c(-c2csc(NC(=N)N)n2)[nH]1 [Example 45, 2-Guanidino-4-(2,4-dimethyl-4-imidazolyl)thiazole hydrobromide hemihydrate] | ≥ 15
< 2000 | – | CC(=O)Nc1nc(-c2csc(NC(=N)N)n2)c[nH]1 [Example 28, 2-Guanidino-4-(2-N-acetamido-4-imidazoyl)thiazole] | ≥ 15
< 2000 | – | CCc1n[nH]c(-c2csc(NC(=N)N)n2)n1 [Example 17, 2-Guanidino-4-(3-ethyl-5-1,24-triazolyl)thiazole] | ≥ 15
< 2000 | – | CC(C)Nc1nc(-c2csc(NC(=N)N)n2)c[nH]1 [Example 24, 2-Guanidino-4-(2-N-i-propylamino-4-imidazoyl)thiazole dihydrochloride] | ≥ 15
< 2000 | – | N=C(N)Nc1nc(-c2c[nH]c(CO)n2)cs1 [Example 50, 2-Guanidino-4-(2-hydroxymethyl-4-imidazolyl)thiazole hydrobromide] | ≥ 15
< 2000 | – | N=C(N)Nc1nc(-c2cscn2)cs1 [Example 5, 2-Guanidino-4-(4-thiazolyl)thiazole] | ≥ 15
< 2000 | – | CNc1nc(-c2csc(NC(=N)N)n2)c[nH]1 [Example 21, 2-Guanidino-4-(2-N-methylamino-4-imidazoyl)thiazole dihydrochloride] | ≥ 15
< 2000 | – | CCNc1nc(-c2csc(NC(=N)N)n2)c[nH]1 [Example 22, 2-Guanidino-4-(2-N-ethylamino-4-imidazoyl)thiazole dihydrochloride] | ≥ 15
